Measurements: patent US8299097B2, “Methods for treating inflammatory disorders” (The Brigham and Women's Hospital, Inc., priority 2008, dated 2012)

Experiments:
[1] = tested on: CHO cells expressing CysLT1R, CysLT2R, or P2Y12 receptors; assay: Calcium flux in Fura-2-AM-loaded CHO transfectants; format: cell-based, human; settings: LTE4 500 nM, ADP 100 μM; ADP response reflects endogenous P2Y receptors
[2] = Direct binding of [H^3]LTE4 to LAD2 cell membranes; design: species or system human
Protocol: (§1) FIG. 10. Competitive ligand binding assays. 10A. […] Specific binding (typically 50-75% of the total) was calculated by subtracting the amount of radiolabel that was insensitive to the selective P2Y12 receptor antagonist 2-MesAMP. Nonspecific binding was essentially identical in the membranes with and without P2Y12 receptor knockdown. The dose response for the LAD2 membranes are from a single experiment repeated four times with similar results. The binding on the LAD2 cells with P2Y12 knocked down was repeated twice. 10B. Specific binding of radiolabeled ADP (2000 nM) to membranes of LAD2 cells. […] Results are mean±SD from three separate experiments. 10C. Conversion of radiolabeled LTD4 to LTE4 as confirmed by HPLC (left). […] Results in a second experiment were similar 10D. Competitive binding of radiolabeled 2-MesADP to COS-7 cells transfected with the human P2Y12 construct.
Competitive radioligand binding assays were performed using [H^3]ADP (the known natural ligand of P2Y12 receptors) and unlabeled LTs as competitors. […]
[^3H] […] Protein concentration was determined using Biorad Protein Assay Kit. […] The residual membrane-associated [^3H] on the filter was determined in 2 ml scintillation fluid by beta counter (Perkin Elmer). For [^3H]ADP, specific binding was determined by subtracting the amount of [^3H] bound in the presence of 100 μM 2-MesADP from total binding.

P2Y12 receptors = assay: Competitive radioligand binding of [H^3]ADP to LAD2 cell membranes; design: species or system human
Protocol: as §1
Competitive radioligand binding assays were performed using [H^3]ADP (the known natural ligand of P2Y12 receptors) and unlabeled LTs as competitors. […] The membranes from the transfectants expressing the forward construct bound [P^33]2-MesADP, a selective P2Y12 receptor agonist.
[^3H] […] The converted product was extracted into 400 μl of methanol, evaporated in presence of nitrogen and diluted to the required concentration with the binding buffer for the binding assay. The conversion was confirmed by running an aliquot on high-performance reverse phase liquid chromatography. […] Briefly, cells were washed in PBS, resuspended in PBS supplemented with protease inhibitor cocktail and lysed by sonication for 5 min. The lysed cells were centrifuged at 100,000 Xg for 45 min and the microsomal pellet was resuspended in 1 ml PBS. Protein concentration was determined using Biorad Protein Assay Kit. 50 μg of membrane protein was incubated for 1 h at room temperature in 250 μl of 10 mM Hepes/KOH, pH 7.4, with various concentrations of radiolabeled ligand and cold competitor. Bound [^3H] was separated from free [^3H] by filtration through GF/C filters (Whatman) and washed twice with 10 mM Hepes/KOH, pH 7.4, containing 0.01% BSA. The residual membrane-associated [^3H] on the filter was determined in 2 ml scintillation fluid by beta counter (Perkin Elmer). For [^3H]ADP, specific binding was determined by subtracting the amount of [^3H] bound in the presence of 100 μM 2-MesADP from total binding.

CCCCC/C=C\C\C=C/C=C/C=C/[C@@H](SC[C@H](N)C(=O)O)[C@@H](O)CCCC(=O)O [LTE4]
calcium flux [1]: failed to flux calcium
binding of [H^3]LTE4 to LAD2 cell membranes [2]: weakly bound
specific ADP binding blocked (P2Y12 receptors; unlabeled LTE4 0.1 nM, mean±SEM, four experiments): 39±9%
specific ADP binding blocked (P2Y12 receptors; unlabeled LTE4 1 nM, mean±SEM, four experiments): 50±9%
specific ADP binding blocked (plateau) (P2Y12 receptors; unlabeled LTE4 1 μM, mean±SEM, four experiments): 60±7%
competition with labeled ADP, LTE4 compared with LTD4 (P2Y12 receptors; unlabeled competitors 10 μM): more efficacious than LTD4
